Measurements taken from the NIST ThermoML archive (doi:10.1016/j.jct.2015.04.034).

Experiments:
[1] = 298.15 K; 101.33 kPa; Liquid; Vibrating tube method
[2] = excess molar enthalpy (molar enthalpy of mixing); xn = mol fraction of the nth substance listed; conditions: 101 kPa, Liquid, Flow calorimetry

CC1(C)C(=O)[C@]2(C)CC[C@H]1C2 [(-)-fenchone]
Conditions	mass density [kg/m3]
[1]	940.67

CC(C)O [propan-2-ol]
Conditions	mass density [kg/m3]
[1]	781.2

CC1(C)C(=O)[C@]2(C)CC[C@H]1C2 [(-)-fenchone] + CCCO
excess molar enthalpy [kcal/mol], [2]
Conditions	283.15 K	298.15 K	313.15 K	328.15 K
x1 = 0.049	0.0459	0.0526	0.0578	0.0612
x1 = 0.098	0.0875	0.1	0.11	0.117
x1 = 0.193	0.154	0.175	0.191	0.204
x1 = 0.292	0.2	0.228	0.251	0.269
x1 = 0.397	0.232	0.267	0.293	0.315
x1 = 0.493	0.243	0.28	0.309	0.331
x1 = 0.592	0.239	0.277	0.305	0.326
x1 = 0.691	0.218	0.251	0.275	0.293
x1 = 0.805	0.167	0.19	0.206	0.217
x1 = 0.897	0.0975	0.114	0.125	0.131
x1 = 0.951	0.05	0.0574	0.0626	0.0657

CCCO [propan-1-ol]
Conditions	mass density [kg/m3]
[1]	799.56

CC1(C)C(=O)[C@]2(C)CC[C@H]1C2 [(-)-fenchone] + CC(C)O
excess molar enthalpy [kcal/mol], [2]
Conditions	283.15 K	298.15 K	313.15 K	328.15 K
x1 = 0.049	0.0619	0.0681	0.0727	0.0739
x1 = 0.097	0.117	0.13	0.138	0.14
x1 = 0.192	0.204	0.222	0.235	0.241
x1 = 0.292	0.26	0.287	0.306	0.316
x1 = 0.392	0.292	0.326	0.349	0.362
x1 = 0.499	0.302	0.338	0.364	0.378
x1 = 0.598	0.294	0.328	0.354	0.367
x1 = 0.697	0.263	0.294	0.316	0.326
x1 = 0.792	0.212	0.234	0.251	0.257
x1 = 0.899	0.116	0.13	0.141	0.144
x1 = 0.947	0.066	0.0743	0.0796	0.0817
